Assay results from US8106044B2, “8-{4-[3-(5-fluoro-1H-indol-3-yl)-propyl]-piperazin-1-yl}-2-methyl-4H-benzo[1,4]oxazin-3-one mesylate with high affinity for the dopamine D2 receptor and the serotonin reuptake site” (Solvay Pharmaceuticals B.V., priority 2001, dated 2012).
Structures can show the parent of a compound that is named as a salt.

Key:
solubility in water = format: physicochemical; conditions: in comparison with the free base
bio-availability = conditions: in vivo

## CC1Oc2c(cccc2N2CCN(CCCc3c[nH]c4ccc(F)cc34)CC2)NC1=O (centres unmarked) [mesylate, 8-{4-[3-(5-fluoro-1H-indol-3-yl)-propyl]-piperazin-1-yl}-2-methyl-4H-benzo[1,4]oxazin-3-one mesylate]
Solubility in water
  solubility in water: much better soluable in water than the free base
bio-availability
  bio-availability: good
